Numbers after ± are expanded uncertainties.
Assay: activity coefficient (dimensionless); of the first substance listed, at infinite dilution; xn = mol fraction of the nth substance listed
Details: 101 kPa, Liquid, Chromatography, x1 = 0

Row | SMILES | activity coefficient (318.15 K) | activity coefficient (328.15 K) | activity coefficient (338.15 K) | activity coefficient (348.15 K) | activity coefficient (358.15 K) | activity coefficient (368.15 K)
1 | Cc1ccccc1C [1,2-dimethylbenzene] + COCC[N+]1(C)CCCCC1.O=S(=O)([N-]S(=O)(=O)C(F)(F)F)C(F)(F)F | 1.66 ± 0.11 | 1.68 ± 0.11 | 1.69 ± 0.11 | 1.71 ± 0.11 | 1.72 ± 0.12 | 1.73 ± 0.12
2 | Cc1cccc(C)c1 [1,3-dimethylbenzene] + COCC[N+]1(C)CCCCC1.O=S(=O)([N-]S(=O)(=O)C(F)(F)F)C(F)(F)F | 1.8 ± 0.12 | 1.81 ± 0.12 | 1.82 ± 0.12 | 1.83 ± 0.12 | 1.85 ± 0.12 | 1.86 ± 0.13
3 | Cc1ccc(C)cc1 [1,4-dimethylbenzene] + COCC[N+]1(C)CCCCC1.O=S(=O)([N-]S(=O)(=O)C(F)(F)F)C(F)(F)F | 1.08 ± 0.07 | 1.1 ± 0.07 | 1.13 ± 0.07 | 1.14 ± 0.07 | 1.16 ± 0.07 | 1.19 ± 0.08
4 | C1COCCO1 [1,4-dioxane] + COCC[N+]1(C)CCCCC1.O=S(=O)([N-]S(=O)(=O)C(F)(F)F)C(F)(F)F | 0.616 ± 0.043 | 0.636 ± 0.044 | 0.654 ± 0.045 | 0.673 ± 0.046 | 0.687 ± 0.046 | 0.705 ± 0.047
5 | C=CCCCCCCCC [1-decene] + COCC[N+]1(C)CCCCC1.O=S(=O)([N-]S(=O)(=O)C(F)(F)F)C(F)(F)F | 36.2 ± 2.5 | 33.7 ± 2.3 | 31.4 ± 2.1 | 29.2 ± 2 | 27.4 ± 1.9 | 26 ± 1.8
6 | C=CCCCCC [1-heptene] + COCC[N+]1(C)CCCCC1.O=S(=O)([N-]S(=O)(=O)C(F)(F)F)C(F)(F)F | 12.4 ± 0.8 | 11.9 ± 0.8 | 11.4 ± 0.8 | 10.8 ± 0.7 | 10.4 ± 0.7 | 9.99 ± 0.68
7 | C#CCCCCC [1-heptyne] + COCC[N+]1(C)CCCCC1.O=S(=O)([N-]S(=O)(=O)C(F)(F)F)C(F)(F)F | 4.22 ± 0.29 | 4.21 ± 0.29 | 4.19 ± 0.29 | 4.17 ± 0.28 | 4.15 ± 0.28 | 4.15 ± 0.28
8 | C#CCCCC [1-hexyne] + COCC[N+]1(C)CCCCC1.O=S(=O)([N-]S(=O)(=O)C(F)(F)F)C(F)(F)F | 2.98 ± 0.2 | 2.99 ± 0.2 | 3 ± 0.2 | 3.01 ± 0.2 | 3.02 ± 0.21 | 3.03 ± 0.21
9 | CCC[N+](=O)[O-] [1-nitropropane] + COCC[N+]1(C)CCCCC1.O=S(=O)([N-]S(=O)(=O)C(F)(F)F)C(F)(F)F | 0.724 ± 0.048 | 0.725 ± 0.048 | 0.726 ± 0.048 | 0.727 ± 0.048 | 0.727 ± 0.048 | 0.728 ± 0.048
10 | C#CCCCCCC [1-octyne] + COCC[N+]1(C)CCCCC1.O=S(=O)([N-]S(=O)(=O)C(F)(F)F)C(F)(F)F | 6.02 ± 0.41 | 5.92 ± 0.4 | 5.85 ± 0.4 | 5.77 ± 0.39 | 5.7 ± 0.39 | 5.63 ± 0.38
11 | C=CCCC [1-pentene] + COCC[N+]1(C)CCCCC1.O=S(=O)([N-]S(=O)(=O)C(F)(F)F)C(F)(F)F | 6.03 ± 0.41 | 5.9 ± 0.4 | 5.73 ± 0.39 | 5.6 ± 0.38 | 5.46 ± 0.37 | 5.36 ± 0.37
12 | CC(C)CC(C)(C)C [2,2,4-trimethylpentane] + COCC[N+]1(C)CCCCC1.O=S(=O)([N-]S(=O)(=O)C(F)(F)F)C(F)(F)F | 23.7 ± 1.1 | 22.3 ± 1 | 20.9 ± 1 | 19.7 ± 0.9 | 18.5 ± 0.9 | 17.6 ± 0.8
13 | CCC(C)(C)C [2,2-dimethylbutane] + COCC[N+]1(C)CCCCC1.O=S(=O)([N-]S(=O)(=O)C(F)(F)F)C(F)(F)F | 13.5 ± 0.6 | 12.9 ± 0.6 | 12.4 ± 0.6 | 11.8 ± 0.5 | 11.3 ± 0.5 | 10.9 ± 0.5
14 | CCOC(C)(C)C [2-ethoxy-2-methylpropane] + COCC[N+]1(C)CCCCC1.O=S(=O)([N-]S(=O)(=O)C(F)(F)F)C(F)(F)F | 5.82 ± 0.4 | 5.71 ± 0.39 | 5.62 ± 0.38 | 5.53 ± 0.38 | 5.44 ± 0.37 | 5.38 ± 0.37
15 | CCC(C)(C)OC [2-methoxy-2-methylbutane] + COCC[N+]1(C)CCCCC1.O=S(=O)([N-]S(=O)(=O)C(F)(F)F)C(F)(F)F | 3.74 ± 0.25 | 3.74 ± 0.25 | 3.73 ± 0.25 | 3.73 ± 0.25 | 3.73 ± 0.25 | 3.72 ± 0.25
16 | COC(C)(C)C [2-methoxy-2-methylpropane] + COCC[N+]1(C)CCCCC1.O=S(=O)([N-]S(=O)(=O)C(F)(F)F)C(F)(F)F | 2.56 ± 0.17 | 2.59 ± 0.18 | 2.63 ± 0.18 | 2.66 ± 0.18 | 2.69 ± 0.18 | 2.73 ± 0.19

Row | SMILES | activity coefficient (318.15 K) | activity coefficient (328.15 K) | activity coefficient (338.15 K) | activity coefficient (348.15 K) | activity coefficient (358.15 K) | activity coefficient (368.15 K)
17 | CC(C)CO [2-methyl-1-propanol] + COCC[N+]1(C)CCCCC1.O=S(=O)([N-]S(=O)(=O)C(F)(F)F)C(F)(F)F | 2.61 ± 0.18 | 2.34 ± 0.16 | 2.12 ± 0.14 | 1.92 ± 0.13 | 1.75 ± 0.12 | 1.62 ± 0.11
18 | CC(C)(C)O [2-methylpropan-2-ol] + COCC[N+]1(C)CCCCC1.O=S(=O)([N-]S(=O)(=O)C(F)(F)F)C(F)(F)F | 1.87 ± 0.13 | 1.73 ± 0.12 | 1.61 ± 0.11 | 1.5 ± 0.1 | 1.42 ± 0.09 | 1.34 ± 0.09
19 | CCC(C)CC [3-methylpentane] + COCC[N+]1(C)CCCCC1.O=S(=O)([N-]S(=O)(=O)C(F)(F)F)C(F)(F)F | 14.7 ± 0.7 | 13.9 ± 0.6 | 13.2 ± 0.6 | 12.5 ± 0.6 | 11.9 ± 0.6 | 11.5 ± 0.5
20 | C=C(C)c1ccccc1 [(1-methylethenyl)benzene] + COCC[N+]1(C)CCCCC1.O=S(=O)([N-]S(=O)(=O)C(F)(F)F)C(F)(F)F |  | 1.61 ± 0.11 | 1.66 ± 0.11 | 1.7 ± 0.11 | 1.74 ± 0.12 | 1.78 ± 0.12
21 | CC(C)=O [acetone] + COCC[N+]1(C)CCCCC1.O=S(=O)([N-]S(=O)(=O)C(F)(F)F)C(F)(F)F | 0.462 ± 0.036 | 0.471 ± 0.037 | 0.48 ± 0.037 | 0.49 ± 0.037 | 0.498 ± 0.038 | 0.507 ± 0.038
22 | CC#N [acetonitrile] + COCC[N+]1(C)CCCCC1.O=S(=O)([N-]S(=O)(=O)C(F)(F)F)C(F)(F)F | 0.471 ± 0.037 | 0.471 ± 0.037 | 0.473 ± 0.037 | 0.473 ± 0.037 | 0.474 ± 0.037 | 0.475 ± 0.037
23 | c1ccccc1 [benzene] + COCC[N+]1(C)CCCCC1.O=S(=O)([N-]S(=O)(=O)C(F)(F)F)C(F)(F)F | 0.912 ± 0.058 | 0.922 ± 0.058 | 0.934 ± 0.059 | 0.943 ± 0.059 | 0.951 ± 0.06 | 0.961 ± 0.06
24 | CCCCO [butan-1-ol] + COCC[N+]1(C)CCCCC1.O=S(=O)([N-]S(=O)(=O)C(F)(F)F)C(F)(F)F | 2.72 ± 0.19 | 2.45 ± 0.17 | 2.22 ± 0.15 | 2.01 ± 0.14 | 1.85 ± 0.12 | 1.71 ± 0.11
25 | CCC(C)O (stereo not given) [butan-2-ol] + COCC[N+]1(C)CCCCC1.O=S(=O)([N-]S(=O)(=O)C(F)(F)F)C(F)(F)F | 2.26 ± 0.15 | 2.07 ± 0.14 | 1.89 ± 0.13 | 1.74 ± 0.12 | 1.62 ± 0.11 | 1.52 ± 0.1
26 | CCCC=O [butanal] + COCC[N+]1(C)CCCCC1.O=S(=O)([N-]S(=O)(=O)C(F)(F)F)C(F)(F)F | 0.779 ± 0.051 | 0.791 ± 0.051 | 0.805 ± 0.052 | 0.817 ± 0.053 | 0.828 ± 0.053 | 0.84 ± 0.054
27 | C1CCCCCC1 [cycloheptane] + COCC[N+]1(C)CCCCC1.O=S(=O)([N-]S(=O)(=O)C(F)(F)F)C(F)(F)F | 13.3 ± 0.6 | 12.5 ± 0.6 | 11.7 ± 0.5 | 10.9 ± 0.5 | 10.2 ± 0.5 | 9.64 ± 0.44
28 | C1CCCCC1 [cyclohexane] + COCC[N+]1(C)CCCCC1.O=S(=O)([N-]S(=O)(=O)C(F)(F)F)C(F)(F)F | 9.72 ± 0.45 | 9.23 ± 0.42 | 8.71 ± 0.4 | 8.24 ± 0.38 | 7.81 ± 0.36 | 7.48 ± 0.34
29 | C1=CCCCC1 [cyclohexene] + COCC[N+]1(C)CCCCC1.O=S(=O)([N-]S(=O)(=O)C(F)(F)F)C(F)(F)F | 5.41 ± 0.37 | 5.21 ± 0.36 | 5 ± 0.34 | 4.83 ± 0.33 | 4.67 ± 0.32 | 4.53 ± 0.31
30 | C1CCCCCCC1 [cyclooctane] + COCC[N+]1(C)CCCCC1.O=S(=O)([N-]S(=O)(=O)C(F)(F)F)C(F)(F)F | 18 ± 1.2 | 16.6 ± 1.1 | 15.4 ± 1.1 | 14.3 ± 1 | 13.2 ± 0.9 | 12.4 ± 0.8
31 | C1CCCC1 [cyclopentane] + COCC[N+]1(C)CCCCC1.O=S(=O)([N-]S(=O)(=O)C(F)(F)F)C(F)(F)F | 6.73 ± 0.31 | 6.42 ± 0.29 | 6.13 ± 0.28 | 5.86 ± 0.27 | 5.63 ± 0.26 | 5.45 ± 0.25
